According to ChEMBL document CHEMBL4011590, “Structure-activity relationship studies on 3,5-dinitrophenyl tetrazoles as antitubercular agents” (Eur J Med Chem, 2017):
In brackets after ≈: the same amount, converted by molar mass.

Key:
Nakaseomyces glabratus [1] = experiment: Antifungal activity against Candida glabrata 20/I after 48 hrs by broth microdilution method; type: functional
Mycobacterium kansasii [2] = experiment: Antimycobacterial activity against Mycobacterium kansasii CNCTC My 235/80 after 21 days by micromethod; type: functional; details: CNCTC My 235/80, 504 h
Mycobacterium kansasii [3] = experiment: Antimycobacterial activity against Mycobacterium kansasii isolate 6509/96 after 21 days by micromethod; type: functional; details: isolate 6509/96, 504 h
Pichia kudriavzevii [4] = experiment: Antifungal activity against Candida krusei E28 after 24 hrs by broth microdilution method; type: functional; details: E28, 24 h
Enterococcus sp. [5] = experiment: Antibacterial activity against Enterococcus sp. HK14365/08 after 48 hrs by broth microdilution method; type: functional; details: HK14365/08, 48 h
[6] = system: Trichophyton mentagrophytes; experiment: Antifungal activity against Trichophyton mentagrophytes 445 after 120 hrs by broth microdilution method; type: functional; details: Trichophyton mentagrophytes, 445, 120 h
[7] = Selectivity index, ratio of IC50 for human HaCaT cells to MIC for Mycobacterium tuberculosis H37Rv CNCTC My 331/88; type: toxicity; details: read-out: Selectivity Index
Candida albicans [8] = experiment: Antifungal activity against Candida albicans ATCC 44859 after 48 hrs by broth microdilution method; type: functional; details: ATCC 44859, 48 h
Candida tropicalis [9] = experiment: Antifungal activity against Candida tropicalis 156 after 24 hrs by broth microdilution method; type: functional; details: Candida tropicalis, 156, 24 h
Klebsiella pneumoniae [10] = experiment: Antibacterial activity against Klebsiella pneumoniae HK11750/08 after 24 hrs by broth microdilution method; type: functional; details: HK11750/08, 24 h
Trichosporon asahii [11] = experiment: Antifungal activity against Trichosporon asahii 1188 after 48 hrs by broth microdilution method; type: functional; details: Trichosporon asahii, 1188, 48 h
Mycobacterium avium [12] = experiment: Antimycobacterial activity against Mycobacterium avium CNCTC My 330/80 after 21 days by micromethod; type: functional; details: CNCTC My 330/80, 504 h
[13] = system: Mycobacterium tuberculosis; experiment: Antimycobacterial activity against Mycobacterium tuberculosis H37Rv CNCTC My 331/88 after 21 days by micromethod; type: functional; details: H37Rv CNCTC My 331/88, 504 h
Staphylococcus aureus [14] = experiment: Antibacterial activity against methicillin-resistant Staphylococcus aureus HK5996/08 after 24 hrs by broth microdilution method; type: functional; details: HK5996/08, 24 h
Trichosporon asahii [15] = experiment: Antifungal activity against Trichosporon asahii 1188 after 24 hrs by broth microdilution method; type: functional; details: Trichosporon asahii, 1188, 24 h
Staphylococcus aureus [16] = experiment: Antibacterial activity against methicillin-resistant Staphylococcus aureus HK5996/08 after 48 hrs by broth microdilution method; type: functional; details: HK5996/08, 48 h
Staphylococcus aureus [17] = experiment: Antibacterial activity against Staphylococcus aureus ATCC 6538 after 48 hrs by broth microdilution method; type: functional; details: ATCC 6538, 48 h
Mycobacterium kansasii [18] = experiment: Antimycobacterial activity against Mycobacterium kansasii isolate 6509/96 after 7 days by micromethod; type: functional; details: isolate 6509/96, 168 h
Mycobacterium avium [19] = experiment: Antimycobacterial activity against Mycobacterium avium CNCTC My 330/80 after 14 days by micromethod; type: functional; details: CNCTC My 330/80, 336 h
Lichtheimia corymbifera [20] = experiment: Antifungal activity against Absidia corymbifera 272 after 24 hrs by broth microdilution method; type: functional; details: Lichtheimia corymbifera, 272, 24 h
Lichtheimia corymbifera [21] = experiment: Antifungal activity against Absidia corymbifera 272 after 48 hrs by broth microdilution method; type: functional; details: Lichtheimia corymbifera, 272, 48 h
Enterococcus sp. [22] = experiment: Antibacterial activity against Enterococcus sp. HK14365/08 after 24 hrs by broth microdilution method; type: functional; details: HK14365/08, 24 h
CHO-K1 = experiment: Cytotoxicity against CHOK1 cells after 24 hrs by MTT assay; type: cell-based; details: Cricetulus griseus, CHO-K1, 24 h
Klebsiella pneumoniae [23] = experiment: Antibacterial activity against extended spectrum beta-lactamase producing Klebsiella pneumoniae HK14368/08 after 24 hrs by broth microdilution method; type: functional; details: HK14368/08, 24 h
Pseudomonas aeruginosa [24] = experiment: Antibacterial activity against Pseudomonas aeruginosa ATCC 9027 after 24 hrs by broth microdilution method; type: functional; details: ATCC 9027, 24 h
Candida tropicalis [25] = experiment: Antifungal activity against Candida tropicalis 156 after 48 hrs by broth microdilution method; type: functional; details: Candida tropicalis, 156, 48 h
Klebsiella pneumoniae [26] = experiment: Antibacterial activity against extended spectrum beta-lactamase producing Klebsiella pneumoniae HK14368/08 after 48 hrs by broth microdilution method; type: functional; details: HK14368/08, 48 h
Candida albicans [27] = experiment: Antifungal activity against Candida albicans ATCC 44859 after 24 hrs by broth microdilution method; type: functional; details: ATCC 44859, 24 h
[28] = system: Trichophyton mentagrophytes; experiment: Antifungal activity against Trichophyton mentagrophytes 445 after 72 hrs by broth microdilution method; type: functional; details: Trichophyton mentagrophytes, 445, 72 h
Aspergillus fumigatus [29] = experiment: Antifungal activity against Aspergillus fumigatus 231 after 24 hrs by broth microdilution method; type: functional; details: Aspergillus fumigatus, 231, 24 h
Mycobacterium kansasii [30] = experiment: Antimycobacterial activity against Mycobacterium kansasii CNCTC My 235/80 after 14 days by micromethod; type: functional; details: CNCTC My 235/80, 336 h
Nakaseomyces glabratus [31] = experiment: Antifungal activity against Candida glabrata 20/I after 24 hrs by broth microdilution method; type: functional
[32] = Selectivity index, ratio of IC50 for CHOK1 cells to MIC for Mycobacterium tuberculosis H37Rv CNCTC My 331/88; type: toxicity; details: hamster, CHO-K1 cells; read-out: Selectivity Index
[33] = system: Mycobacterium tuberculosis; experiment: Antimycobacterial activity against Mycobacterium tuberculosis H37Rv CNCTC My 331/88 after 14 days by micromethod; type: functional; details: H37Rv CNCTC My 331/88, 336 h
Mycobacterium kansasii [34] = experiment: Antimycobacterial activity against Mycobacterium kansasii isolate 6509/96 after 14 days by micromethod; type: functional; details: isolate 6509/96, 336 h
Pichia kudriavzevii [35] = experiment: Antifungal activity against Candida krusei E28 after 48 hrs by broth microdilution method; type: functional; details: E28, 48 h
Aspergillus fumigatus [36] = experiment: Antifungal activity against Aspergillus fumigatus 231 after 48 hrs by broth microdilution method; type: functional; details: Aspergillus fumigatus, 231, 48 h
Klebsiella pneumoniae [37] = experiment: Antibacterial activity against Klebsiella pneumoniae HK11750/08 after 48 hrs by broth microdilution method; type: functional; details: HK11750/08, 48 h
Pseudomonas aeruginosa [38] = experiment: Antibacterial activity against Pseudomonas aeruginosa ATCC 9027 after 48 hrs by broth microdilution method; type: functional; details: ATCC 9027, 48 h
Escherichia coli [39] = experiment: Antibacterial activity against Escherichia coli ATCC 8739 after 48 hrs by broth microdilution method; type: functional; details: ATCC 8739, 48 h
Staphylococcus aureus [40] = experiment: Antibacterial activity against Staphylococcus aureus ATCC 6538 after 24 hrs by broth microdilution method; type: functional; details: ATCC 6538, 24 h
HaCaT = experiment: Cytotoxicity against human HaCaT cells after 72 hrs by neutral red uptake assay; type: cell-based
Escherichia coli [41] = experiment: Antibacterial activity against Escherichia coli ATCC 8739 after 24 hrs by broth microdilution method; type: functional; details: ATCC 8739, 24 h
Mycobacterium kansasii [42] = experiment: Antimycobacterial activity against Mycobacterium kansasii CNCTC My 235/80 after 7 days by micromethod; type: functional; details: CNCTC My 235/80, 168 h
[43] = Selectivity index, ratio of IC50 for mouse 3T3 cells to MIC for Mycobacterium tuberculosis H37Rv CNCTC My 331/88; type: toxicity; details: read-out: Selectivity Index
[44] = system: Staphylococcus epidermidis; experiment: Antibacterial activity against Staphylococcus epidermidis HK6966/08 after 48 hrs by broth microdilution method; type: functional; details: HK6966/08, 48 h
[45] = system: Staphylococcus epidermidis; experiment: Antibacterial activity against Staphylococcus epidermidis HK6966/08 after 24 hrs by broth microdilution method; type: functional; details: HK6966/08, 24 h

## COc1ccc(Cn2nnc(-c3cc([N+](=O)[O-])cc([N+](=O)[O-])c3)n2)cc1
Nakaseomyces glabratus [1]
  MIC: > 500 µM
Mycobacterium kansasii [2]
  MIC99: 0.25 µM (≈ 0.0891 µg/mL)
Mycobacterium kansasii [3]
  MIC99: 0.125 µM (≈ 0.0445 µg/mL)
Pichia kudriavzevii [4]
  MIC: > 500 µM
Enterococcus sp. [5]
  MIC: > 500 µM
[6]
  MIC: > 500 µM
[7]
  selectivity ratio: > 1000
Candida albicans [8]
  MIC: > 500 µM
Candida tropicalis [9]
  MIC: > 500 µM
Klebsiella pneumoniae [10]
  MIC: > 500 µM
Trichosporon asahii [11]
  MIC: > 500 µM
Mycobacterium avium [12]
  MIC99: 8 µM (≈ 2.85 µg/mL)
[13]
  MIC99: 0.03 µM (≈ 0.0107 µg/mL)
Staphylococcus aureus [14]
  MIC: 250 µM (≈ 89.1 µg/mL)
Trichosporon asahii [15]
  MIC: > 500 µM
Staphylococcus aureus [16]
  MIC: 250 µM (≈ 89.1 µg/mL)
Staphylococcus aureus [17]
  MIC: > 250 µM
Mycobacterium kansasii [18]
  MIC99: 0.06 µM (≈ 0.0214 µg/mL)
Mycobacterium avium [19]
  MIC99: 4 µM (≈ 1.43 µg/mL)
Lichtheimia corymbifera [20]
  MIC: > 500 µM
Lichtheimia corymbifera [21]
  MIC: > 500 µM
Enterococcus sp. [22]
  MIC: > 500 µM
CHO-K1
  IC50: 96 µM
Klebsiella pneumoniae [23]
  MIC: > 500 µM
Pseudomonas aeruginosa [24]
  MIC: > 500 µM
Candida tropicalis [25]
  MIC: > 500 µM
Klebsiella pneumoniae [26]
  MIC: > 500 µM
Candida albicans [27]
  MIC: > 500 µM
[28]
  MIC: > 500 µM
Aspergillus fumigatus [29]
  MIC: > 500 µM
Mycobacterium kansasii [30]
  MIC99: 0.125 µM (≈ 0.0445 µg/mL)
Nakaseomyces glabratus [31]
  MIC: > 500 µM
[32]
  selectivity ratio: > 1000
[33]
  MIC99: 0.03 µM (≈ 0.0107 µg/mL)
Mycobacterium kansasii [34]
  MIC99: 0.06 µM (≈ 0.0214 µg/mL)
Pichia kudriavzevii [35]
  MIC: > 500 µM
Aspergillus fumigatus [36]
  MIC: > 500 µM
Klebsiella pneumoniae [37]
  MIC: > 500 µM
Pseudomonas aeruginosa [38]
  MIC: > 500 µM
Escherichia coli [39]
  MIC: > 500 µM
Staphylococcus aureus [40]
  MIC: > 250 µM
HaCaT
  IC50: > 100 µM
Escherichia coli [41]
  MIC: > 500 µM
Mycobacterium kansasii [42]
  MIC99: 0.125 µM (≈ 0.0445 µg/mL)
[43]
  selectivity ratio: > 1000

## O=[N+]([O-])c1cc(-c2nnn(CSc3nnnn3-c3ccc(Cl)c(Cl)c3)n2)cc([N+](=O)[O-])c1
Nakaseomyces glabratus [1]
  MIC: > 125 µM
Mycobacterium kansasii [2]
  MIC99: 125 µM (≈ 61.9 µg/mL)
Mycobacterium kansasii [3]
  MIC99: 0.06 µM (≈ 0.0297 µg/mL)
Pichia kudriavzevii [4]
  MIC: > 125 µM
Enterococcus sp. [5]
  MIC: > 125 µM
[6]
  MIC: > 125 µM
Candida albicans [8]
  MIC: > 125 µM
[44]
  MIC: > 125 µM
Candida tropicalis [9]
  MIC: > 125 µM
Klebsiella pneumoniae [10]
  MIC: > 125 µM
Trichosporon asahii [11]
  MIC: > 125 µM
Mycobacterium avium [12]
  MIC99: 8 µM (≈ 3.96 µg/mL)
[13]
  MIC99: 0.03 µM (≈ 0.0149 µg/mL)
Staphylococcus aureus [14]
  MIC: > 125 µM
Trichosporon asahii [15]
  MIC: > 125 µM
[45]
  MIC: > 125 µM
Staphylococcus aureus [16]
  MIC: > 125 µM
Staphylococcus aureus [17]
  MIC: > 125 µM
Mycobacterium kansasii [18]
  MIC99: 0.03 µM (≈ 0.0149 µg/mL)
Mycobacterium avium [19]
  MIC99: 4 µM (≈ 1.98 µg/mL)
Lichtheimia corymbifera [20]
  MIC: > 125 µM
Lichtheimia corymbifera [21]
  MIC: > 125 µM
Enterococcus sp. [22]
  MIC: > 125 µM
CHO-K1
  IC50: 8.7 µM
Klebsiella pneumoniae [23]
  MIC: > 125 µM
Pseudomonas aeruginosa [24]
  MIC: > 125 µM
Candida tropicalis [25]
  MIC: > 125 µM
Klebsiella pneumoniae [26]
  MIC: > 125 µM
Candida albicans [27]
  MIC: > 125 µM
[28]
  MIC: > 125 µM
Aspergillus fumigatus [29]
  MIC: > 125 µM
Mycobacterium kansasii [30]
  MIC99: 0.125 µM (≈ 0.0619 µg/mL)
Nakaseomyces glabratus [31]
  MIC: > 125 µM
[33]
  MIC99: 0.03 µM (≈ 0.0149 µg/mL)
Mycobacterium kansasii [34]
  MIC99: 0.06 µM (≈ 0.0297 µg/mL)
Pichia kudriavzevii [35]
  MIC: > 125 µM
Aspergillus fumigatus [36]
  MIC: > 125 µM
Klebsiella pneumoniae [37]
  MIC: > 125 µM
Pseudomonas aeruginosa [38]
  MIC: > 125 µM
Escherichia coli [39]
  MIC: > 125 µM
Staphylococcus aureus [40]
  MIC: > 125 µM
Escherichia coli [41]
  MIC: > 125 µM
Mycobacterium kansasii [42]
  MIC99: 0.06 µM (≈ 0.0297 µg/mL)
